Experimental data as given in patent US12404303B2, “Polypeptide and use thereof” (NANJING ANJI BIOLOGICAL TECHNOLOGY CO., LTD., priority 2019, dated 2025).
No end group written: not given here.

Assays:
[1] = system: SD rats with renal fibrosis; assay: Renal fibrosis animal model (ureter ligation), TGF-β1 in serum; format: in vivo; details: 7.5 mg/kg subcutaneous twice a day, 14 days, vs model group; FIG. 4
Description: A renal fibrosis animal model was established. SD rats were anesthetized with 4% chloral hydrate, injected with 1 mL/100 g intraperitoneally, fixed to an operation board, and sterilized in an operation area for later use. […] Muscular layers and abdominal walls were sewed layer by layer, the suture was disinfected with alcohol. After SD rats woke up, the rats were put into a cage for feeding. In the blank group, ureter was not ligated, and other steps were the same. Then, the animals fell into a blank group, a model group, and polypeptide administration groups, and the administration was started on the second day after the operation, twice a day for 14 days. After administration for 14 days, blood was taken and supernatant was taken to detect the content of TGF-β1 in serum. [table]

[2] = system: myelofibrosis model mice; assay: Myelofibrosis model induced by rh EPO; format: in vivo, Kunming mice; parameters: WBC / Hb / MCV / RDW: unit not given here; details: 10 mg/kg subcutaneous twice a day, 28 days
Description: There were 10 mice in each group. The normal control group was injected with normal saline (0.3 mL for each mouse), and the remaining groups were injected with rh EPO (0.1 unit/gram, body weight, 0.3 mL for each mouse) intraperitoneally every day. After induction for two days, drug therapy was started, subcutaneous injection was given twice a day, and after continuous administration for 28 days, the mouse heart was punctured for blood extraction, some blood was used for peripheral blood analysis, some blood was centrifuged, and the supernatant was taken to measure the content of TGF-β1 in the serum of mice. [table]

[3] = system: streptococcus pneumoniae; assay: Mouse pneumonia model, bacterial pneumonia; format: in vivo, BALB/C mice; details: average values±standard deviation
Excerpt: (§1) A mouse pneumonia model was successfully established by using a nasal drip method. BALB/C mice with a body weight of 18-24 g were selected, and then anesthetized with ether on day 0, day 1 and day 2, respectively, prepared streptococcus pneumoniae bacteria solution, adenovirus concentrated solution, mycoplasma pneumoniae, chlamydia pneumoniae, protozoa and pneumonia fungi were slowly dropped into the nasal cavity of the mice, so that the bacteria solutions entered the trachea and bronchi, and the bacteria solutions were prevented from flowing into the esophagus during the operation to avoid inactivation of the bacteria solutions, so that the mouse pneumonia model was established. After the model was successfully established, the polypeptide according to the present disclosure was administered, as shown in FIG. 7 and Table 9. […] The experimental results are represented on the basis of average values±standard deviation.

[4] = system: skin fibrosis model mice; assay: Skin fibrosis model induced by bleomycin, HYP in skin tissue; format: in vivo, C57/BL black mice; details: skin tissue of the mouse back; 10 mg/kg subcutaneous twice a day, 28 days, vs model group; FIG. 6
Description: Bleomycin (10 μg/mL) was injected subcutaneously every day for 28 days to form skin fibrosis. During the modeling period, the administration groups were given polypeptide drugs every day for treatment, with 10 mice in each group. After modeling, the mice were killed on the next day, and the skin tissue of the mouse back was taken to detect the content of HYP in the skin tissue. [table]

[5] = system: chlamydia pneumoniae; assay: Mouse pneumonia model, chlamydia pneumonia; format: in vivo, BALB/C mice; details: average values±standard deviation
Excerpt: as §1

[6] = system: SD rats with bleomycin-induced pulmonary fibrosis; assay: Bleomycin-induced pulmonary fibrosis animal model; format: in vivo; details: bleomycin 5 mg/kg intratracheal, polypeptides 7.5 mg/kg subcutaneous twice a day, positive drug 25 mg/kg intragastric once a day, 14 days
Description: SD rats were anesthetized by intraperitoneal injection of 1 mL/100 g 4% chloral hydrate. After anesthesia, the rats were fixed and their necks were disinfected by using cotton with 75% alcohol. The skin of the rat neck was longitudinally cut with scissors, and the fascia and muscle were longitudinally bluntly torn with tweezers to expose the trachea. A syringe was inserted into the trachea to inject 5 mg/kg bleomycin, while a blank group was injected with an equal amount of normal saline. Then a rat plate was quickly erected and rotated, the rats' breathing was observed, the neck wound was sterilized after rotation and was sewn, and an amoxicillin anti-inflammatory drug was sprinkled on the suture. After the operation, the rats were put back into a dry and clean cage for resting, waiting was performed for awakening. The rats were awakened after about 1-2 hours, and then fed normally. On the 7th day after modeling, modeling group animals randomly fell into a model group, a Nintedanib positive drug group, polypeptide I, II, III and IV dosage groups, and a normal control group, and the groups were administered separately for an administration cycle of 14 days. Living situations of rats were observed every day and their weights were weighed.

[7] = system: pneumonia fungi; assay: Mouse pneumonia model, fungal pneumonia; format: in vivo, BALB/C mice; details: average values±standard deviation
Excerpt: as §1

[8] = system: mycoplasma pneumoniae; assay: Mouse pneumonia model, mycoplasma pneumonia; format: in vivo, BALB/C mice; details: average values±standard deviation
Excerpt: as §1

[9] = system: LX-2 cells; assay: Proliferation of LX-2 cells induced by TGF-β1 (MTT, in vitro hepatic fibrosis model); format: cell-based; details: polypeptide 1 μmol/L, TGF-β1 10 ng/mL, 48 hours
Description: LX-2 cells were cultured in 1640 medium containing 10% FBS, and cultured in an incubator with 5% CO2 at 37° C. The medium was replaced every two days, and subcultured according to the cell density. The LX-2 cells in a logarithmic growth phase were digested with 0.25% pancreatin to make cell suspension. The density of the cells was adjusted to 4×10^5 cells/mL, and the cells were inoculated into 96-well plates with 100 μL per well and cultured overnight. On the second day, TGF-β1 was added to induce the proliferation and activation of the LX-2 cells, and the polypeptide drugs were administrated at 1 μmol/L. TGF-β1 (10 ng/mL) was added to each group except the blank group. The cells were cultured in the incubator for 48 hours, and then 10 μL of MTT was added to each well. The MTT was removed after 4 hours, and 150 μL of DMSO was added for reaction for 5 min. An OD value was measured by a microplate reader at 570 nm.

[10] = system: protozoa; assay: Mouse pneumonia model, protozoal pneumonia; format: in vivo, BALB/C mice; details: average values±standard deviation
Excerpt: as §1

[11] = system: cardiac fibroblasts of rats; assay: Proliferation of cardiac fibroblasts of rats (MTT, in vitro myocardial fibrosis model); format: cell-based; details: 1 μmol/L
Description: The inhibitory effect of a polypeptide on cardiac fibroblasts of rats was detected by MTT assay. Cells were cultured in a DMEM medium containing 10% of FBS, the cytoplasm was made into 1×10^5/mL cell suspension, and 100 μL per well was inoculated into a 96-well plate. After the cells adhered to the wall, the medium was replaced with a serum-free DMEM medium, and the serum-free medium was discarded after 24 hours. The cells were cultured with different polypeptides of 1 μmol/L, and 5 multiple wells were set for each concentration. After 12, 24 and 48 hours separately, 10 μL of MTT was added to each well. After 4 hours, MTT was sucked out, and 150 μL of DMSO was added to each well. After reaction for 5 min, an OD value was measured at 570 nm by a microplate reader.

[12] = system: pulmonary infections; assay: Mouse pneumonia model, pneumonia caused by pulmonary infections; format: in vivo, BALB/C mice; details: average values±standard deviation
Excerpt: as §1

[13] = system: adenovirus; assay: Mouse pneumonia model, viral pneumonia; format: in vivo, BALB/C mice; details: average values±standard deviation
Excerpt: as §1

**Q.** Which “content of TGF-β1 in serum” value [1] does the source give for “RGADRAGGGGPRCYCGE (cysteine pairing not given here) [Polypeptide IV]” here?
**A.** highly significantly different from the model group (**P<0.01)

**Q.** And the “content of TGF-β1 in serum” value ([2]; mouse serum, vs model group, FIG. 5)?
**A.** highly significantly different from the model group (**P<0.01)

**Q.** And the Hb ([2]; peripheral blood)?
**A.** 155 ± 16

**Q.** And the MCV ([2]; peripheral blood)?
**A.** 54 ± 5

**Q.** And the RDW ([2]; peripheral blood)?
**A.** 24 ± 1

**Q.** And the WBC ([2]; peripheral blood)?
**A.** 5.83 ± 1.07

**Q.** And the “Inhibitory effect on pulmonary infections, Bacterial pneumonia” value [3]?
**A.** 45.05 ± 3.25

**Q.** What about the “expression of HYP in the skin tissue” value [4] of the same sequence?
**A.** highly significantly different from the model group (*P<0.05)

**Q.** And the “Inhibitory effect on pulmonary infections, Chlamydia pneumonia” value [5]?
**A.** 38.85 ± 3.11

**Q.** What about the “Survival rate (%)” value [6] of the same sequence?
**A.** 92.9%

**Q.** What about the “Inhibitory effect on pulmonary infections, Fungal pneumonia” value [7] of the same sequence?
**A.** 48.61 ± 3.22

**Q.** What about the “Inhibitory effect on pulmonary infections, Mycoplasma pneumonia” value [8] of the same sequence?
**A.** 43.27 ± 5.63

**Q.** What about the “inhibition of proliferation and activation of LX-2 cells, difference from model group” value [9] of the same sequence?
**A.** significantly different from the model group (*P<0.05)

**Q.** What about the OD value ([9]; MTT, 570 nm) of the same sequence?
**A.** 0.64 ± 0.03

**Q.** And the “Inhibitory effect on pulmonary infections, Protozoal pneumonia” value [10]?
**A.** 49.04 ± 3.17

**Q.** And the “Optical density values, 12 hours” value ([11]; 12 hours, MTT, 570 nm)?
**A.** 0.309 ± 0.010

**Q.** And the “Optical density values, 24 hours” value ([11]; 24 hours, MTT, 570 nm)?
**A.** 0.385 ± 0.008

**Q.** What about the “Optical density values, 48 hours” value ([11]; 48 hours, MTT, 570 nm) of the same sequence?
**A.** 0.598 ± 0.013

**Q.** And the “inhibition of the proliferation of cardiac fibroblasts of rats” value ([11]; at 24 hours and 48 hours)?
**A.** could inhibit the proliferation

**Q.** What about the “Inhibitory effect on pulmonary infections, Pneumonia caused by pulmonary infections” value [12] of the same sequence?
**A.** 55.57 ± 4.25

**Q.** What about the “Inhibitory effect on pulmonary infections, Viral pneumonia” value [13] of the same sequence?
**A.** 58.07 ± 2.07
